Data on three compounds can be found in article PMC10385743.

The term EC50 denotes the concentration that produces a half-maximal response. As a reminder, the EC90 is the concentration needed for an effect of 90%. What is called CC50 is the concentration giving 50% cytotoxicity.

Series [1] deals with bloodstream form T. b. brucei (strain 221). As to conditions: for SI (CC50 for L6 cells / EC50 for T. brucei): selectivity index.
The test system of series [2] is HCV GT1b (Con1) replicon RNA. The conditions noted are these: Hepatitis C virus, Huh-5-2, read-out: HCV RNA EC50.
The test system of series [3] is YFV (strain 17D) subgenomic replicon. The series can be described thus: microbe, parasite or virus in culture. As to conditions: 72 h, read-out: Huh7-YF (YFV Replicon 17D) EC50. The format is cell-based, yellow fever virus. (Replicon systems follow genome replication, usually without infectious particles.)
In series [4] the test system is bloodstream form T. b. brucei (strain 221). The series can be described thus: microbe, parasite or virus in culture. As to conditions: Trypanosoma brucei, mean of triplicate experiments ± SEM.
For series [5], the system named is T. cruzi (CL Brener strain) epimastigotes. The series can be described thus: microbe, parasite or virus in culture. The conditions noted are these: Trypanosoma cruzi, read-out: T. cruzi EC50.
Series [6] has as its system HCV GT 1b (Con1). The series can be described thus: Combinatory activity of 34 with daclatasvir (DCV) in Huh5-2 replicon cells, F-Luc activity. The series is classed as cell-based, hepatitis C virus. Here is the method: The Huh5-2 replicon cell line was treated with compound 34 in the presence or absence of daclatasvir (DCV) to test its effectiveness in combination with an authorized NS5A inhibitor (DCV) (Figure 6).
Figure 6 Combinatory activity of 34 with DCV against HCV GT 1b (Con1). Huh5-2 cells were treated or not with the analog in the presence or absence of 20 pM DCV. F-Luc activity was measured and calculated as relative light units (RLU) per μg of total protein. […] CDI: coefficient of drug interaction. […] Error bars represent standard deviation (SD). TEXT PRINTED IN THE PICTURE: DCV + 34: CDI: 1.09 (1μM); CDI: 0.91 (2μM)

Series [7] in a line: Cytotoxicity against cultured L6 cells (resazurin). As to conditions: rat, L6 rat skeletal myoblast cells, L6 Cells CC50, mean of triplicate experiments ± SEM. A general note: Alamar Blue is a resazurin reagent that responds to reducing activity.
The subject of series [8] is rat skeletal myoblast L6 cells. The series can be described thus: Cytotoxicity against cultured L6 cells (resazurin). The conditions noted are these: read-out: L6 Cells CC50; mean of triplicate experiments ± SEM.
The nature of series [9]: Cytotoxicity in Huh5-2 replicon cells (intracellular ATP levels). The conditions noted are these: human.
The test system of series [10] is HCV GT 4a (strain ED43) subgenomic replicon. The series can be described thus: microbe, parasite or virus in culture. The series is classed as cell-based, hepatitis C virus. The conditions noted are these: for EC50: 72 h, luciferase, mean ± SD, read-out: Huh7.5-4a(ED43) (HCV Replicon 4a) EC50.
Series [11] has as its system HCV GT 3a (strain S52) subgenomic replicon. The series can be described thus: microbe, parasite or virus in culture. The format is cell-based, hepatitis C virus. As to conditions: 72 h, luciferase, mean ± SD, read-out: Huh7.5-3a(S52) (HCV Replicon 3a) EC50.
Series [12] deals with DENV serotype 2 (strain 16681) subgenomic replicon. The series can be described thus: microbe, parasite or virus in culture. The format is cell-based, dengue virus. The conditions noted are these: 72 h, luciferase, mean ± SD, read-out: Huh7-D2 (DENV-2 Replicon) EC50.
In series [13] the test system is Huh5-2 cells. The series can be described thus: Cytotoxicity in Huh5-2 replicon cells (intracellular ATP levels). The conditions noted are these: read-out: Huh5-2 (HCV Replicon 1b) CC50; 72 h; ATP levels; mean ± SD; * highest concentration used 10 μΜ.
Series [14] deals with T. cruzi (CL Brener strain) epimastigotes. The conditions noted are these: read-out: T. cruzi EC50; epimastigotes; mean of triplicate experiments ± SEM.
For series [15] the test system is unchanged. Also noted: method as in PMID 31303998. As to conditions: lead compound; cited from earlier work.
Series [16] relates to HCV GT 3a (strain S52) subgenomic replicon. Further details: method as in PMID 31303998. As to conditions: lead compound; read-out: Huh7.5-3a(S52) (HCV Replicon 3a) EC50; cited from earlier work.
The test system of series [17] is Huh5-2 cells. Further details: method as in PMID 31303998. As to conditions: lead compound; read-out: Huh5-2 (HCV Replicon 1b) CC50; cited from earlier work.
In series [18] the test system is HCV GT 4a (strain ED43) subgenomic replicon. Further details: method as in PMID 31303998. As to conditions: lead compound; read-out: Huh7.5-4a(ED43) (HCV Replicon 4a) EC50; cited from earlier work.
Series [19] has as its system DENV serotype 2 (strain 16681) subgenomic replicon. Further details: method as in PMID 31303998. The conditions noted are these: lead compound; read-out: Huh7-D2 (DENV-2 Replicon) EC50; cited from earlier work.
Series [20] concerns rat skeletal myoblast L6 cells. Also noted: method as in PMID 31303998. The conditions noted are these: lead compound; cited from earlier work.
Series [21] deals with bloodstream form T. b. brucei (strain 221). As to conditions: cited from earlier work.

The structures appear in SMILES notation. Where “and” joins values, the source holds several entries; their conditions need not be identical. Identical values can stand only once. Like-named read-outs stand apart in the source and are kept apart here.

On to `CC1CCC2(NC(=O)N(CC(=O)NO)C2=O)c2ccccc21` [Compound 34, Ν-(hydroxy)-2-((4R,4′S)/(4S,4′R)-4′-methyl-2,5-dioxo-3′,4′-dihydro-2′H-spiro[imidazolidine-4,1′-naphthalene]-1-yl)acetamide], for which the “SI (CC50 for L6 cells / EC50 for T. brucei)” value in [1] is recorded as 335. Moreover, the EC50 in series [2] is 0.726 µM; in series [3] (Yellow fever virus), more than 10 µM; in series [4] (read-out: T. brucei EC50, cultured bloodstream form), 0.67 ± 0.09 µM; in [5], more than 30 µM; in [10], 0.14 ± 0.01 µM; in [11] (Hepatitis C virus, GT3A), 0.63 ± 0.08 µM. The 50% effective concentration (EC50) in series [12] (Dengue virus, DENV2) was more than 10 µM. Further, in series [4] (read-out: T. brucei EC90, cultured bloodstream form), the EC90 was 0.92 ± 0.23 µM. Besides, the CDI in [6] (1 μM 34 with 20 pM DCV) was 1.09; in series [6] (2 μM 34 with 20 pM DCV), 0.91. The “coefficient of drug interaction (CDI)” value in [6] (34 in combination with daclatasvir (DCV)) was “≈ 1”. Besides, the CC50 at 6 days in series [7] is more than 200 µM. In addition, the CC50 in series [8] was 224 ± 20 µM. The CC50 at 72 h in series [9] is more than 200 µM. Besides, in [10], the “fold more active against GT 4a than lead molecule V” value stood at 2.5 fold.

As to `CC1CCC2(NC(=O)N(CC(=O)NO)C2=O)c2ccccc21` [Compound 35, Ν-(Hydroxy)-2-((4R,4′R)/(4S,4′S)-4′-methyl-2,5-dioxo-3′,4′-dihydro-2′H-spiro[imidazolidine-4,1′-naphthalene]-1-yl)acetamide], the EC50 is 0.56 ± 0.07 µM in series [1] (read-out: T. brucei EC50, cultured bloodstream form, mean of triplicate experiments ± SEM); more than 10 µM in series [3] (luciferase, mean ± SD); 0.41 ± 0.02 µM in series [10]; 0.77 ± 0.03 µM in series [11]; more than 30 µM in series [14]; more than 10 µM in series [12]. The EC90 in [1] (read-out: T. brucei EC90, cultured bloodstream form, mean of triplicate experiments ± SEM) amounted to 0.86 ± 0.19 µM. Besides, in [1], the “SI (CC50 for L6 cells / EC50 for T. brucei)” value is reported as 400. Also, the CC50 in series [8] is > 200 µM and 224 µM; in series [13], more than 200 µM.

On to `O=C(CN1C(=O)NC2(CCCc3ccccc32)C1=O)NO` (stereo not drawn) [V], for which the EC50 was more than 30 µM in [15]; 2.37 ± 0.17 µM in series [16]; 0.38 ± 0.04 µM in [18]; 61.5 ± 3.86 µM in series [19]; 0.71 ± 0.12 µM in series [21] (earlier lead compounds, read-out: T. brucei EC50). Also, the values for the EC90 in series [15] and in [21] (lead compound) were more than 30 µM and 1.27 ± 0.02 µM, respectively. Moreover, the CC50 was more than 200 µM in series [17] and 419 ± 55 µM in series [20]. Also, in series [21] (lead compound), the “SI (CC50 for L6 cells / EC50 for T. brucei)” value is reported as 590.
